According to patent publication US12685726B2, “Sulfoximines as inhibitors of NaV1.8” (Gruenenthal GmbH, priority 2022, dated 2026):

Target: T1, human NaV 1.8 (Homo sapiens, UniProt Q9Y5Y9)
T1 construct: expressed in transfected cells; host or cells: HEK (recombinant cell line)
Assay: Automated whole-cell patch clamp (Qube384) voltage-clamp recordings of sodium currents in HEK-NaV1.8 cell line
Format: cell-based
Details: read-out: Potency category (human NaV 1.8 IC50)
Summary of the method: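 HEK cells expressing NaV1.8 with b3, whole-cell automated voltage clamp at room temperature or 19° C.; CsF-based internal, pH 7.4 external. State-dependent (−120 mV, V1/2 4 s, −10 mV test pulses) and 10/20 Hz 40-pulse protocols; ~12 min compound, vehicle-corrected, IC50 by 4-parameter logistic fit.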

T1 sequence (Q9Y5Y9 whole entry): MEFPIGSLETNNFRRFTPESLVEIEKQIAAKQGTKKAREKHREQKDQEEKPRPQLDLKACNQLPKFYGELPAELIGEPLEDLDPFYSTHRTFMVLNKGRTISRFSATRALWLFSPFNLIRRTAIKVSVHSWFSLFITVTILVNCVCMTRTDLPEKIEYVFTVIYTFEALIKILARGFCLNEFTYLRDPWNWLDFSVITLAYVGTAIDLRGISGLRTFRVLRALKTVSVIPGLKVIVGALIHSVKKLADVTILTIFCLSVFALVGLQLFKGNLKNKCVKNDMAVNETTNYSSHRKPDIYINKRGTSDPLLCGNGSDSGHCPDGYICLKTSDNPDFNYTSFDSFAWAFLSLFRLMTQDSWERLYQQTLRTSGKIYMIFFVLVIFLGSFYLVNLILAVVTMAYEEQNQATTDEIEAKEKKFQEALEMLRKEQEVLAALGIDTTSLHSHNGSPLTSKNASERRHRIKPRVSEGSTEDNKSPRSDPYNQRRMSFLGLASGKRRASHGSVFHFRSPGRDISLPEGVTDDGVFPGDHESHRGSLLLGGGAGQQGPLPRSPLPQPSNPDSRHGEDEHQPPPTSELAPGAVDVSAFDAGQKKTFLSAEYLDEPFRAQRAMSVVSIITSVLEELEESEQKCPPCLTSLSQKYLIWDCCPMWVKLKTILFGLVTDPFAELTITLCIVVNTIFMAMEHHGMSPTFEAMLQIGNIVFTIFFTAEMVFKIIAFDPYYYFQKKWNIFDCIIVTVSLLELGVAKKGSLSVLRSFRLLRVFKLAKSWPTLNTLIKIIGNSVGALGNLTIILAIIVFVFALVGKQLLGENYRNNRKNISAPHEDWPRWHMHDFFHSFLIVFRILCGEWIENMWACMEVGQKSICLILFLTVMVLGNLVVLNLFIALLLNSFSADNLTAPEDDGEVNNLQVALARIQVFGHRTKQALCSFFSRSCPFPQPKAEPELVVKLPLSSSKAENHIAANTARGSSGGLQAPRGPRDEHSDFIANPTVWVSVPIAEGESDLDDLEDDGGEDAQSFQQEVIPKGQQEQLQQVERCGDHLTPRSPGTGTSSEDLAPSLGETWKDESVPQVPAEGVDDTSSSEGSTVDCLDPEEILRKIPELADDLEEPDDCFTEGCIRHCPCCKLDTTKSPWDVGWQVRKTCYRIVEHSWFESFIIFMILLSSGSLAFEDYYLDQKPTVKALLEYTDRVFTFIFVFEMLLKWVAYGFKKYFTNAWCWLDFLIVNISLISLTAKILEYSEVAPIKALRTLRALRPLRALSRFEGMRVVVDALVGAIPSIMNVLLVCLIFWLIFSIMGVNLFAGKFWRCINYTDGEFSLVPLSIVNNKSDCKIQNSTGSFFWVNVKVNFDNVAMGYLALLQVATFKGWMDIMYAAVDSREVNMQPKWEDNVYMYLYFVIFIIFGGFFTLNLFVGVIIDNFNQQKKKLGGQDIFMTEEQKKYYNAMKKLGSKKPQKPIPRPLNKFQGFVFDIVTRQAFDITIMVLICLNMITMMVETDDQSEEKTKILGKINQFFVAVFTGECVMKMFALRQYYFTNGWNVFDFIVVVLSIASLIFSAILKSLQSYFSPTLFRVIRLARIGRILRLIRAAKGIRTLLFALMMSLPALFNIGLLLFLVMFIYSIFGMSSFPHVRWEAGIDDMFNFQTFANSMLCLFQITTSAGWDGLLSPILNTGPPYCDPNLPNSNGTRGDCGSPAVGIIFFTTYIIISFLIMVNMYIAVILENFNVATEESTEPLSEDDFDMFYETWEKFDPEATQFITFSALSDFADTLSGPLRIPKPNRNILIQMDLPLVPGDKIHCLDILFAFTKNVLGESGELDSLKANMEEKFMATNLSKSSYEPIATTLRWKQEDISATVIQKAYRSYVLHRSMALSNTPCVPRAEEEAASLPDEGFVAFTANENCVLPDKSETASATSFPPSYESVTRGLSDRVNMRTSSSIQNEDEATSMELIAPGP

IC50	Structure (SMILES)
≤ 100 nM	CC1(Cn2nc(C3CC3)c(C(F)(F)F)c2C(=O)Nc2ccc(F)c(S(C)(=N)=O)c2)CC(F)(F)C1 (single isomer, unassigned) [Example 132b, 3-Cyclopropyl-1-((3,3-difluoro-1-methylcyclobutyl)methyl)-N-(4-fluoro-3-(S-methylsulfonimidoyl)phenyl)-4-(trifluoromethyl)-1H-pyrazole-5-carboxamide]
≤ 100 nM	CC1(Cn2nc(C3(F)CC3)c(C(F)(F)F)c2C(=O)Nc2ccnc(S(C)(=N)=O)c2)CC(F)(F)C1 (single isomer, unassigned) [Example 70a, 1-((3,3-Difluoro-1-methylcyclobutyl)methyl)-3-(1-fluorocyclopropyl)-N-(2-(S-methylsulfonimidoyl)pyridin-4-yl)-4-(trifluoromethyl)-1H-pyrazole-5-carboxamide]
≤ 100 nM	CC1(Cn2nc(C(C)(C)C)c(C(F)(F)F)c2C(=O)Nc2ccnc(S(C)(=N)=O)c2)CC(F)(F)C1 (single isomer, unassigned) [Example 143a, 3-(Tert-butyl)-1-((3,3-difluoro-1-methylcyclobutyl)methyl)-N-(2-(S-methylsulfonimidoyl)pyridin-4-yl)-4-(trifluoromethyl)-1H-pyrazole-5-carboxamide]
≤ 100 nM	CS(=N)(=O)c1cc(NC(=O)c2c(C(F)(F)F)c(C3CC3)nn2CC2C(F)(F)C23CCC3)ccn1 (single isomer, unassigned) [Example 136a, 3-Cyclopropyl-1-((2,2-difluorospiro[2.3]hexan-1-yl)methyl)-N-(2-(S-methylsulfonimidoyl)pyridin-4-yl)-4-(trifluoromethyl)-1H-pyrazole-5-carboxamide]
≤ 100 nM	CC1(Cn2nc(C3(F)CC3)c(C(F)F)c2C(=O)Nc2cccc(S(C)(=N)=O)c2)CC(F)(F)C1 (single isomer, unassigned) [Example 135b, 1-((3,3-Difluoro-1-methylcyclobutyl)methyl)-4-(difluoromethyl)-3-(1-fluorocyclopropyl)-N-(3-(S-methylsulfonimidoyl)phenyl)-1H-pyrazole-5-carboxamide]
≤ 100 nM	Cc1c(C(C)(F)F)nn(C[C@H]2C[C@@H](C(F)(F)F)C2)c1C(=O)Nc1ccnc(S(C)(=N)=O)c1 (single isomer, unassigned) [Example 31a, 3-(1,1-difluoroethyl)-4-methyl-N-(2-(S-methylsulfonimidoyl)pyridin-4-yl)-1-(((cis)-3-(trifluoromethyl)cyclobutyl)methyl)-1H-pyrazole-5-carboxamide]
≤ 100 nM	CS(=N)(=O)c1cc(NC(=O)c2c(C(F)(F)F)c(C34CC(C3)C4)nn2CC2C[C@@H]2C(F)(F)F)ccn1 (stereo partly drawn) [Example 147]
≤ 100 nM	CC1(Cn2nc(C34CC(C3)C4)c(C(F)(F)F)c2C(=O)Nc2ccnc(S(C)(=N)=O)c2)CC(F)(F)C1 (single isomer, unassigned) [Example 58a, 3-(Bicyclo[1.1.1]pentan-1-yl)-1-((3,3-difluoro-1-methylcyclobutyl)methyl)-N-(2-(S-methylsulfonimidoyl)pyridin-4-yl)-4-(trifluoromethyl)-1H-pyrazole-5-carboxamide]
≤ 100 nM	CC1(Cn2nc(C3(F)CC3)c(C(F)(F)F)c2C(=O)Nc2cc(F)cc(S(C)(=N)=O)c2)CC(F)(F)C1 (single isomer, unassigned) [Example 127a, 1-((3,3-Difluoro-1-methylcyclobutyl)methyl)-N-(3-fluoro-5-(S-methylsulfonimidoyl)phenyl)-3-(1-fluorocyclopropyl)-4-(trifluoromethyl)-1H-pyrazole-5-carboxamide]

Further lines, the compound ahead of its results:

Structure (SMILES)	IC50
CS(=N)(=O)c1cc(NC(=O)c2c(C(F)(F)F)c(C3CC3)nn2CC2CCC23CNC3)ccn1 (single isomer, unassigned) [Example 153b, 1-((2-Azaspiro[3.3]heptan-5-yl)methyl)-3-cyclopropyl-N-(2-(S-methylsulfonimidoyl)pyridin-4-yl)-4-(trifluoromethyl)-1H-pyrazole-5-carboxamide]	1000 to 10000 nM
CCS(=N)(=O)c1cc(NC(=O)c2c(C(F)(F)F)c(C3CC3)nn2CC2(C)CC(F)(F)C2)ccn1 (single isomer, unassigned) [Example 48a, 3-cyclopropyl-1-((3,3-difluoro-1-methylcyclobutyl)methyl)-N-(2-(ethylsulfonimidoyl)pyridin-4-yl)-4-(trifluoromethyl)-1H-pyrazole-5-carboxamide]	≤ 100 nM
CC1(Cn2nc(C34CC(F)(C3)C4)c(C(F)F)c2C(=O)Nc2cccc(S(C)(=N)=O)c2)CC(F)(F)C1 (single isomer, unassigned) [Example 113b, 1-((3,3-Difluoro-1-methylcyclobutyl)methyl)-4-(difluoromethyl)-3-(3-fluorobicyclo[1.1.1]pentan-1-yl)-N-(3-(S-methylsulfonimidoyl)phenyl)-1H-pyrazole-5-carboxamide]	≤ 100 nM
CC1(Cn2nc(C34CC(C3)C4)c(C(F)F)c2C(=O)Nc2ccnc(S(C)(=N)=O)c2)CC(F)(F)C1 (single isomer, unassigned) [Example 137b, 3-(Bicyclo[1.1.1]pentan-1-yl)-1-((3,3-difluoro-1-methylcyclobutyl)methyl)-4-(difluoromethyl)-N-(2-(S-methylsulfonimidoyl)pyridin-4-yl)-1H-pyrazole-5-carboxamide]	≤ 100 nM
CC1(Cn2nc(C3CC4(CC4)C3)c(C(F)(F)F)c2C(=O)Nc2ccnc(S(C)(=N)=O)c2)CC(F)(F)C1 (single isomer, unassigned) [Example 61a, 1-((3,3-Difluoro-1-methylcyclobutyl)methyl)-N-(2-(S-methylsulfonimidoyl)pyridin-4-yl)-3-(spiro[2.3]hexan-5-yl)-4-(trifluoromethyl)-1H-pyrazole-5-carboxamide]	≤ 100 nM
CC1(Cn2nc(C3(F)CC3)c(C(F)(F)F)c2C(=O)Nc2cccc(S(=N)(=O)C(F)F)c2)CC(F)(F)C1 (single isomer, unassigned) [Example 130a, 1-((3,3-Difluoro-1-methylcyclobutyl)methyl)-N-(3-(S-(difluoromethyl)sulfonimidoyl)phenyl)-3-(1-fluorocyclopropyl)-4-(trifluoromethyl)-1H-pyrazole-5-carboxamide]	≤ 100 nM
CC1(Cn2nc(C3(F)CC3)c(C(F)(F)F)c2C(=O)Nc2cccc(S(C)(=N)=O)c2)CC(F)(F)C1 (single isomer, unassigned) [Example 109a, 1-((3,3-Difluoro-1-methylcyclobutyl)methyl)-3-(1-fluorocyclopropyl)-N-(3-(S-methylsulfonimidoyl)phenyl)-4-(trifluoromethyl)-1H-pyrazole-5-carboxamide]	≤ 100 nM
CC1(Cn2nc(C3CC3)c(C(F)(F)F)c2C(=O)Nc2ccnc(S(C)(=N)=O)c2)CC(F)(F)C1 (single isomer, unassigned) [Example 1a, 3-cyclopropyl-1-((3,3-difluoro-1-methylcyclobutyl)methyl)-N-(2-(S-methylsulfonimidoyl)pyridin-4-yl)-4-(trifluoromethyl)-1H-pyrazole-5-carboxamide]	≤ 100 nM
C[S@](=N)(=O)c1cc(NC(=O)c2c(C(F)(F)F)c(C3CC3)nn2C[C@@H]2CC23CC3)ccn1 (single isomer, unassigned) [Example 78b, 3-cyclopropyl-N-(2-(S-methylsulfonimidoyl)pyridin-4-yl)-1-(spiro[2.2]pentan-1-ylmethyl)-4-(trifluoromethyl)-1H-pyrazole-5-carboxamide]	≤ 100 nM
C[S@](=N)(=O)c1cc(NC(=O)c2c(C(F)(F)F)c(C3CC3)nn2C[C@H]2CC23CC3)ccn1 (single isomer, unassigned) [Example 78d, 3-cyclopropyl-N-(2-(S-methylsulfonimidoyl)pyridin-4-yl)-1-(spiro[2.2]pentan-1-ylmethyl)-4-(trifluoromethyl)-1H-pyrazole-5-carboxamide]	≤ 100 nM
CC1(Cn2nc(C3(C#N)CC3)c(C(F)(F)F)c2C(=O)Nc2ccnc(S(C)(=N)=O)c2)CC(F)(F)C1 (single isomer, unassigned) [Example 68b, 3-(1-cyanocyclopropyl)-1-((3,3-difluoro-1-methylcyclobutyl)methyl)-N-(2-(S-methylsulfonimidoyl)pyridin-4-yl)-4-(trifluoromethyl)-1H-pyrazole-5-carboxamide]	≤ 100 nM
CC1(Cn2nc(C3(F)CC3)c(C(F)(F)F)c2C(=O)Nc2cccc([S@](C)(=O)=NC(=O)CO)c2)CC(F)(F)C1 [Example 151b]	≤ 100 nM
CC1(Cn2nc(C3CC3)c(C(F)(F)F)c2C(=O)Nc2ccc(F)c(S(C)(=N)=O)c2)CC(F)(F)C1 (single isomer, unassigned) [Example 132a, 3-Cyclopropyl-1-((3,3-difluoro-1-methylcyclobutyl)methyl)-N-(4-fluoro-3-(S-methylsulfonimidoyl)phenyl)-4-(trifluoromethyl)-1H-pyrazole-5-carboxamide]	≤ 100 nM
CC1(Cn2nc(C3CC3)c(C(F)(F)F)c2C(=O)Nc2ccnc(S(C)(=O)=NC[C@@H](O)CO)c2)CC(F)(F)C1 (stereo partly drawn) [Example 152, 3-Cyclopropyl-1-((3,3-difluoro-1-methylcyclobutyl)methyl)-N-(2-(N—((R)-2,3-dihydroxypropyl)-S-methylsulfonimidoyl)pyridin-4-yl)-4-(trifluoromethyl)-1H-pyrazole-5-carboxamide]	≤ 100 nM
CC1(Cn2nc(C34CC(C3)C4(F)F)c(C(F)(F)F)c2C(=O)Nc2ccnc(S(C)(=N)=O)c2)CC(F)(F)C1 (single isomer, unassigned) [Example 114, 1-((3,3-Difluoro-1-methylcyclobutyl)methyl)-3-(2,2-difluorobicyclo[1.1.1]pentan-1-yl)-N-(2-(S-methylsulfonimidoyl)pyridin-4-yl)-4-(trifluoromethyl)-1H-pyrazole-5-carboxamide]	≤ 100 nM
